Earlier results as cited in patent US11351213B2, “Composition for the prevention and/or treatment of respiratory tract disorders” (NEILOS S.R.L., priority 2017, dated 2022).

Experiments:
[1] = not given; remark: listed apart in the source
[2] = tested on: patients affected by COPD; details: HIACE study
[3] = tested on: COPD patients
[4] = COPD patients under treatment for six months

| SMILES | activity on bronchi in vivo | activity on bronchi in vitro [1] | exacerbations ([2]; COPD, reduction from 1.71 times a year) | forced expiratory flow ([2]; patients affected by COPD) | reduction of days of malaise ([3]; COPD) | reduction of exacerbations of the pathology ([3]; COPD) | reduction of hospitalisations for COPD ([3]; COPD) | FEV1 (forced expiratory volume at the first second) [3, 4] | maximum expiratory flow [3, 4] | FEV1 ([3]; after a brief therapy of 4 weeks) |
| --- | --- | --- | --- | --- | --- | --- | --- | --- | --- | --- |
| O[C@H]1CCN2Cc3ccccc3N=C12 [vasicine] | bronchodilating activity | bronchodilating activity | – | – | – | – | – | – | – | – |
| CC(=O)N[C@@H](CS)C(=O)O [NAC, N-acetyl-L-cysteine] | – | – | 0.96 times a year | rose from 25% to 75% | 0.56 days/month | 0.07 exacerbations/month | 30% | significant increase | significant increase | from 25% to 30% |
| O=c1c2ccccc2nc2n1CC[C@@H]2O [Vasicinone, vasicinone] | bronchoconstricting activity | bronchodilating activity | – | – | – | – | – | – | – | – |
